Publication PMC11350787, “Antimicrobial Properties and Cytotoxicity of LL-37-Derived Synthetic Peptides to Treat Orthopedic Infections” (Antibiotics, 2024)
Peptide text beside a SMILES is read from it.

What was measured:
E. coli Eco75 (CI) = details: Eco75 (CI, 18 h)
Description: (§1) A total of 18 bacterial strains relevant to orthopedic infections were used for microbiological tests, including 8 ATCC (American Type Culture Collection, ATCC, Manassas, VA, USA) and 10 clinical isolates (CI) from the Laboratory of Clinical Chemistry and Microbiology, IRCCS Ospedale Galeazzi–Sant’Ambrogio of Milan (Italy) strain collection. The ATCC strains were used for the first screening (MIC/MBC) of all the AMPs produced, while the clinical isolates were used for further MIC/MBC assays on selected AMPs. Among CI, S. epidermidis GOI1153754-03-14 has been already characterized and used in previous studies. All the strains were stocked at −80°C and working stocks were stored at −20 °C. At the occurrence, the bacteria were resuscitated in Brain Hearth Infusion (BHI, Millipore, Milan, Italy) broth at 37 °C for 18 h from the working stocks.
(§2) To determine the minimum inhibitory concentration (MIC) and the minimum bactericidal concentration (MBC), ISO20776-1 and Clinical and Laboratory Standards Institute guidelines were followed. A commercial synthetic LL-37 (Aurogene, Rome, Italy) was used as the control in the MIC and MBC assays. A stock solution of each AMP was prepared at 600 µg/mL to achieve a final concentration of 300 µg/mL. […] The MIC was determined according to the aforementioned standard guidelines. The MBC was determined by plating 2 µL of culture from each well of the MIC plates on a Tryptic Soy Agar (TSA, Millipore, Milan, Italy) plate and incubated for 24 h at 37 °C. The concentration at which there was no growth was recorded as MBC. Each experiment was carried out in triplicate. Representative MIC and MBC values for vancomycin and gentamicin were assessed to offer a benchmark comparison for the AMPs. Quality control was conducted with Staphylococcus aureus ATCC 29,213 and vancomycin according to EUCAST guidelines.

S. aureus Sau89 (CI) = details: Sau89 (CI, 18 h)
Description: as §1, §2

P. aeruginosa Pae82 (CI) = details: Pae82 (CI, 18 h)
Description: as §1, §2

E. coli Eco53 (CI) = details: Eco53 (CI, 18 h)
Description: as §1, §2

Staphylococci = details: 18 h
Description: as §1, §2

S. aureus Sau39 (CI) = details: Sau39 (CI, 18 h)
Description: as §1, §2

S. aureus Sau221 (CI) = details: Sau221 (CI, 18 h)
Description: as §1, §2

P. aeruginosa Pae2 (CI) = details: Pae2 (CI, 18 h)
Description: as §1, §2

E. coli Eco61 (CI) = details: Eco61 (CI, 18 h)
Description: as §1, §2

P. aeruginosa Pae61 (CI) = details: Pae61 (CI, 18 h)
Description: as §1, §2

red blood cells (RBC) = experiment: Hemolytic activity assessment; type: cell-based; details: at 18.75 µg/mL; human RBC suspension in PBS, 1 h 37 °C, absorbance 414 nm; 0.1% Triton-X100 = 100%
Experimental: The pellet containing erythrocytes was washed 3 times in PBS centrifuging at 700× g for 8 min at RT. Finally, 40 µL of pellet containing red blood cells (RBC) was diluted in 8 mL of PBS, obtaining a 0.5% v/v RBC suspension.
The 96-well V plate was incubated at 37 °C for 1 h, then centrifuged at 1000× g for 10 min, and the supernatant (60 µL) was transferred to a 96-well flat bottom microplate for the absorption analysis on a microplate reader at 414 nm. The positive control (PC, 100% hemolysis) consisted of 0.1% Triton-X100 in PBS (pH 7.4), while PBS alone served as the negative control (NC, 0% hemolysis). Each hemolysis activity assessment test was carried out in two replicates and repeated three times.
NCs and PCs were averaged, then results were normalized to the average of PC and NC according to the following formula: % Hemolysis = (Abs treated − Abs NC/Abs PC − Abs NC) × 100. The hemolytic activity was also tested on TFA to exclude any toxicity caused by the buffer.

[1] = system: S. epidermidis GOI1153754-03-14 (CI); experiment: microbe, parasite or virus in culture; details: GOI1153754-03-14 (CI, 18 h)
Description: as §1, §2

S. aureus ATCC 25923 = experiment: microbe, parasite or virus in culture; details: for Minimum Inhibitory Concentration (MIC): ATCC 25923, 18 h; for Minimum Bactericidal Concentration (MBC): ATCC 25923, 24 h
Description: as §1, §2

S. aureus ATCC 49230 = experiment: microbe, parasite or virus in culture; details: for Minimum Inhibitory Concentration (MIC): ATCC 49230, 18 h; for Minimum Bactericidal Concentration (MBC): ATCC 49230, 24 h
Description: as §1, §2

[2] = system: S. epidermidis ATCC 35984; experiment: microbe, parasite or virus in culture; details: for Minimum Inhibitory Concentration (MIC): ATCC 35984, 18 h; for Minimum Bactericidal Concentration (MBC): ATCC 35984, 24 h
Description: as §1, §2

P. aeruginosa ATCC 27853 = experiment: microbe, parasite or virus in culture; details: for Minimum Inhibitory Concentration (MIC): ATCC 27853, 18 h; for Minimum Bactericidal Concentration (MBC): ATCC 27853, 24 h
Description: as §1, §2

E. coli ATCC 25922 = experiment: microbe, parasite or virus in culture; details: for Minimum Inhibitory Concentration (MIC): ATCC 25922, 18 h; for Minimum Bactericidal Concentration (MBC): ATCC 25922, 24 h
Description: as §1, §2

S. aureus ATCC 43300 = experiment: microbe, parasite or virus in culture; details: for Minimum Inhibitory Concentration (MIC): ATCC 43300, 18 h; for Minimum Bactericidal Concentration (MBC): ATCC 43300, 24 h
Description: as §1, §2

[3] = system: S. epidermidis ATCC 14990; experiment: microbe, parasite or virus in culture; details: for Minimum Inhibitory Concentration (MIC): ATCC 14990, 18 h; for Minimum Bactericidal Concentration (MBC): ATCC 14990, 24 h
Description: as §1, §2

ATCC strains = details: 18 h
Description: as §1, §2

SMILES: CC[C@H](C)[C@H](NC(=O)[C@H](CCCNC(=N)N)NC(=O)[C@H](CCC(N)=O)NC(=O)[C@@H](NC(=O)[C@@H](NC(=O)[C@H](CCCNC(=N)N)NC(=O)[C@H](CCCCN)NC(=O)[C@H](Cc1ccccc1)NC(=O)CN)[C@@H](C)CC)C(C)C)C(=O)N[C@@H](CCCCN)C(=O)N[C@@H](CC(=O)O)C(=O)N[C@@H](Cc1ccccc1)C(=O)N[C@@H](CC(C)C)C(=O)N[C@@H](CCCNC(=N)N)C(=O)N[C@@H](CC(N)=O)C(=O)N[C@@H](CC(C)C)C(=O)N[C@H](C(N)=O)C(C)C [GF-17] (H-GFKRIVQRIKDFLRNLV-NH2)
- Minimum Bactericidal Concentration (MBC) (E. coli Eco75 (CI)): 75.00 µg/mL
- Minimum Inhibitory Concentration (MIC) (E. coli Eco75 (CI)): 18.75 µg/mL
- Minimum Bactericidal Concentration (MBC) (S. aureus Sau89 (CI)): 4.69 µg/mL
- Minimum Inhibitory Concentration (MIC) (S. aureus Sau89 (CI)): 4.69 µg/mL
- Minimum Bactericidal Concentration (MBC) (P. aeruginosa Pae82 (CI)): 300.00 µg/mL
- Minimum Inhibitory Concentration (MIC) (P. aeruginosa Pae82 (CI)): 75.00 µg/mL
- Minimum Bactericidal Concentration (MBC) (E. coli Eco53 (CI)): 75.00 µg/mL
- Minimum Inhibitory Concentration (MIC) (E. coli Eco53 (CI)): 18.75 µg/mL
- MBC range (bactericidal effect) against Staphylococci (Staphylococci): 4.69 to 150 µg/mL
- Minimum Bactericidal Concentration (MBC) (S. aureus Sau39 (CI)): 9.38 µg/mL
- Minimum Inhibitory Concentration (MIC) (S. aureus Sau39 (CI)): 2.34 µg/mL
- Minimum Bactericidal Concentration (MBC) (S. aureus Sau221 (CI)): 18.75 µg/mL
- Minimum Inhibitory Concentration (MIC) (S. aureus Sau221 (CI)): 9.38 µg/mL
- Minimum Bactericidal Concentration (MBC) (P. aeruginosa Pae2 (CI)): 150.00 µg/mL
- Minimum Inhibitory Concentration (MIC) (P. aeruginosa Pae2 (CI)): 150.00 µg/mL
- Minimum Bactericidal Concentration (MBC) (E. coli Eco61 (CI)): 18.75 µg/mL
- Minimum Inhibitory Concentration (MIC) (E. coli Eco61 (CI)): 9.38 µg/mL
- Minimum Bactericidal Concentration (MBC) (P. aeruginosa Pae61 (CI)): 150.00 µg/mL
- Minimum Inhibitory Concentration (MIC) (P. aeruginosa Pae61 (CI)): 37.50 µg/mL
- Hemolytic activity (red blood cells (RBC)): below 1%
- Minimum Bactericidal Concentration (MBC) [1]: 37.50 µg/mL
- Minimum Inhibitory Concentration (MIC) [1]: 2.34 µg/mL
- Minimum Inhibitory Concentration (MIC) (S. aureus ATCC 25923): 2.34 µg/mL
- Minimum Bactericidal Concentration (MBC) (S. aureus ATCC 25923): 37.50 µg/mL
- Minimum Inhibitory Concentration (MIC) (S. aureus ATCC 49230): 4.69 µg/mL
- Minimum Bactericidal Concentration (MBC) (S. aureus ATCC 49230): 75.00 µg/mL
- Minimum Inhibitory Concentration (MIC) [2]: 2.34 µg/mL
- Minimum Bactericidal Concentration (MBC) [2]: 4.69 µg/mL
- Minimum Inhibitory Concentration (MIC) (P. aeruginosa ATCC 27853): 18.75 µg/mL
- Minimum Bactericidal Concentration (MBC) (P. aeruginosa ATCC 27853): 75.00 µg/mL
- Minimum Inhibitory Concentration (MIC) (E. coli ATCC 25922): 9.38 µg/mL
- Minimum Bactericidal Concentration (MBC) (E. coli ATCC 25922): 300.00 µg/mL
- Minimum Inhibitory Concentration (MIC) (S. aureus ATCC 43300): 4.69 µg/mL
- Minimum Bactericidal Concentration (MBC) (S. aureus ATCC 43300): 150.00 µg/mL
- Minimum Inhibitory Concentration (MIC) [3]: 4.69 µg/mL
- Minimum Bactericidal Concentration (MBC) [3]: 75.00 µg/mL

SMILES: CC[C@H](C)[C@H](NC(=O)[C@H](CCCNC(=N)N)NC(=O)[C@H](CCC(N)=O)NC(=O)[C@@H](NC(=O)[C@@H](NC(=O)[C@H](CCCNC(=N)N)NC(=O)[C@@H](N)CCCCN)[C@@H](C)CC)C(C)C)C(=O)N[C@@H](CCCCN)C(=O)N[C@@H](CC(=O)O)C(=O)N[C@@H](Cc1ccccc1)C(=O)N[C@@H](CC(C)C)C(=O)N[C@@H](CCCNC(=N)N)C(N)=O [KR-12] (H-KRIVQRIKDFLR-NH2)
- MIC values over all ATCC strains tested (ATCC strains): greater than 300 µg/mL
- Minimum Inhibitory Concentration (MIC) (S. aureus ATCC 25923): >300.00 µg/mL
- Minimum Bactericidal Concentration (MBC) (S. aureus ATCC 25923): >300.00 µg/mL
- Minimum Inhibitory Concentration (MIC) (S. aureus ATCC 49230): >300.00 µg/mL
- Minimum Bactericidal Concentration (MBC) (S. aureus ATCC 49230): >300.00 µg/mL
- Minimum Inhibitory Concentration (MIC) [2]: >300.00 µg/mL
- Minimum Bactericidal Concentration (MBC) [2]: >300.00 µg/mL
- Minimum Inhibitory Concentration (MIC) (P. aeruginosa ATCC 27853): >300.00 µg/mL
- Minimum Bactericidal Concentration (MBC) (P. aeruginosa ATCC 27853): >300.00 µg/mL
- Minimum Inhibitory Concentration (MIC) (E. coli ATCC 25922): >300.00 µg/mL
- Minimum Bactericidal Concentration (MBC) (E. coli ATCC 25922): >300.00 µg/mL
- Minimum Inhibitory Concentration (MIC) (S. aureus ATCC 43300): >300.00 µg/mL
- Minimum Bactericidal Concentration (MBC) (S. aureus ATCC 43300): >300.00 µg/mL
- Minimum Inhibitory Concentration (MIC) [3]: >300.00 µg/mL
- Minimum Bactericidal Concentration (MBC) [3]: >300.00 µg/mL
